Reference: patent publication US20220296595A1, “CDK INHIBITORS” (QILU REGOR THERAPEUTICS INC., priority 2019, published 2022)

Each molecule was assayed against T1, CDK4/CyclinD1 (Homo sapiens, UniProt P11802) (assay: Assay for inhibition of CDK4/CyclinD1 (Caliper microfluidic kinase assay)). Conditions: CDK4/CyclinD1, 200 μM ATP.
T1 construct: purchased Thermofisher PR8064A
Assay type: biochemical
In short: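 Caliper microfluidic mobility-shift assay tracking phosphorylation of 1 μM FL-34 peptide by 1 nM CDK4/CyclinD1 with 200 μM ATP in HEPES pH 7.5 buffer with 10 mM MgCl2. Reaction ran 3 h at room temperature, was stopped with EDTA, and IC50 came from a 4-parameter sigmoidal fit.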

T1 sequence (P11802 whole entry): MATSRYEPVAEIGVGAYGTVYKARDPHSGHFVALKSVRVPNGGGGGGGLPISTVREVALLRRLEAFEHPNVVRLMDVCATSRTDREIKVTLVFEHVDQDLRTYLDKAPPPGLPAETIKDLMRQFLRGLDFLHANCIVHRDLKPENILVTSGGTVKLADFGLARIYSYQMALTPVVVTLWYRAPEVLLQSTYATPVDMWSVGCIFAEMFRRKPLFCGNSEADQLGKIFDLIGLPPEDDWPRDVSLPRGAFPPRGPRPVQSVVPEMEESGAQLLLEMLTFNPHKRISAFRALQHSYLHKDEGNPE
T1 sequence (P24385 whole entry partner): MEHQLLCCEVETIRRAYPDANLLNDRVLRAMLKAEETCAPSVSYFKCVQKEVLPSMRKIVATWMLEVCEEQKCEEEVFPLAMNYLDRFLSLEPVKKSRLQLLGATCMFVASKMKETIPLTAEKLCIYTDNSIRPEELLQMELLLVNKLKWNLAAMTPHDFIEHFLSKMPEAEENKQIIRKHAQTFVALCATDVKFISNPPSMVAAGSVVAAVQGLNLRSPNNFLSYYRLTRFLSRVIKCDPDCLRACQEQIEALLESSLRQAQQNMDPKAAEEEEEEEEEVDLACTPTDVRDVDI

Q: How did the IC50 turn out when `COc1nc(-c2nc(Nc3ccc(N4CCCNCC4=O)cn3)ncc2F)cc2c1nc(C)n2C(C)C` [compound 113] was run?
A: < 10 nM

Q: `CC1CN(c2ccc(Nc3ncc(F)c(-c4ccn5ncc(C(C)C)c5c4)n3)nc2)C(=O)CCN1` (stereo not shown) [compound 194] was tested. Which IC50 did it give?
A: < 10 nM

Q: With `CC(C)n1cnc2c(F)nc(-c3ccnc(Nc4ccc(N5CCCC(N(C)C)C5=O)cn4)n3)cc21` (stereo not shown) [compound 283] as the molecule, how does the IC50 read?
A: < 10 nM

Q: Which IC50 does the source give for `CC(C)c1cnn2ccc(-c3ccnc(Nc4ccc(N5CCCNC5=O)cc4)n3)cc12` [compound 173] here?
A: < 10 nM

Q: For `CC(C)c1cnn2ccc(-c3nc(Nc4ccc(N5CCN(CC(F)(F)F)CC5=O)cn4)ncc3F)cc12` [compound 53], which IC50 is on record?
A: < 10 nM

Q: How did the IC50 turn out when `CC(C)c1cnn2ccc(-c3ccnc(Nc4ccc(N5CCC(C)(N)CC5=O)cn4)n3)cc12` (stereo not shown) [compound 196] was run?
A: < 10 nM

Q: `CC(C)c1cnn2ccc(-c3nc(Nc4ccc(N5CCOCC5=O)cc4F)ncc3F)cc12` [compound 7] was tested. Which IC50 did it give?
A: < 10 nM

Q: How did the IC50 turn out when `CC(C)n1cnc2c1CN(c1ccnc(Nc3ccc(N4CCOCC4=O)cn3)n1)CC2` [Synthetic Example 57] was run?
A: < 10 nM

The molecules below were run against T2, CDK6/CyclinD3 (Homo sapiens, UniProt Q00534) (assay: Assay for inhibition of CDK6/CyclinD3 (Caliper microfluidic kinase assay)). Conditions: CDK6/CyclinD3, 300 μM ATP.
T2 construct: purchased Carna 04-107
Assay type: biochemical
In short: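 Caliper mobility-shift readout of FAM-labelled peptide (FL-34, 1 μM) phosphorylation by 2 nM CDK6/CyclinD3 at 300 μM ATP in HEPES pH 7.5 buffer with MgCl2, DTT; 3 h at room temperature, EDTA stop. IC50 from 4-parameter sigmoidal fit.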

T2 sequence (Q00534 whole entry): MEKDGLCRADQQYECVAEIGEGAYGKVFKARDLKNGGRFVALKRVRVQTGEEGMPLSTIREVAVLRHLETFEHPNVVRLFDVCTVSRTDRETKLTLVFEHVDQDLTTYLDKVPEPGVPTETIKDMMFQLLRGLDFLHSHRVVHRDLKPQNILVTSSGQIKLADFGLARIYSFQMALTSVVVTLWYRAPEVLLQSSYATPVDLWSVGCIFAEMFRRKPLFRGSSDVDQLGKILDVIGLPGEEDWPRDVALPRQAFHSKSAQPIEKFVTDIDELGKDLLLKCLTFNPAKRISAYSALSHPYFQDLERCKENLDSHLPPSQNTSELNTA
T2 sequence (P30281 whole entry partner): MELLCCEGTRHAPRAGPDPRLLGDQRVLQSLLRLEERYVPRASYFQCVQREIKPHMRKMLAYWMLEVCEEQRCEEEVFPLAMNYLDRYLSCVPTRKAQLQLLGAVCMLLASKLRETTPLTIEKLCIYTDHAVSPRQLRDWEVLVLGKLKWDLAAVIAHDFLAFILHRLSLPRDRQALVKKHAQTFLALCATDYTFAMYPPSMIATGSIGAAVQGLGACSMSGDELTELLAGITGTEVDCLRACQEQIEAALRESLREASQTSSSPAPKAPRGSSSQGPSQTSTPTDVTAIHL

Q: Which IC50 does the source give for `COc1nc(-c2nc(Nc3ccc(N4CCCNCC4=O)cn3)ncc2F)cc2c1nc(C)n2C(C)C` [compound 113] here?
A: 10 to 100 nM

Q: `CC1CN(c2ccc(Nc3ncc(F)c(-c4ccn5ncc(C(C)C)c5c4)n3)nc2)C(=O)CCN1` (stereo not shown) [compound 194] was tested. Which IC50 did it give?
A: 10 to 100 nM

Q: For `CC(C)n1cnc2c(F)nc(-c3ccnc(Nc4ccc(N5CCCC(N(C)C)C5=O)cn4)n3)cc21` (stereo not shown) [compound 283], which IC50 is on record?
A: < 10 nM

Q: For `CC(C)c1cnn2ccc(-c3ccnc(Nc4ccc(N5CCCNC5=O)cc4)n3)cc12` [compound 173], which IC50 is on record?
A: < 10 nM

Q: `CC(C)c1cnn2ccc(-c3nc(Nc4ccc(N5CCN(CC(F)(F)F)CC5=O)cn4)ncc3F)cc12` [compound 53] was tested. Which IC50 did it give?
A: 10 to 100 nM

Q: Which IC50 does the source give for `CC(C)c1cnn2ccc(-c3ccnc(Nc4ccc(N5CCC(C)(N)CC5=O)cn4)n3)cc12` (stereo not shown) [compound 196] here?
A: 10 to 100 nM

Q: For `CC(C)c1cnn2ccc(-c3nc(Nc4ccc(N5CCOCC5=O)cc4F)ncc3F)cc12` [compound 7], which IC50 is on record?
A: 10 to 100 nM

Q: Which IC50 does the source give for `CC(C)n1cnc2c1CN(c1ccnc(Nc3ccc(N4CCOCC4=O)cn3)n1)CC2` [Synthetic Example 57] here?
A: 100 to 1000 nM

Each molecule was assayed against T3, CDK2/CyclinE1 (Homo sapiens, UniProt P24941) (assay: Assay for inhibition of CDK2/CyclinE1 (Caliper microfluidic kinase assay)). Conditions: CDK2/CyclinE1, 100 μM ATP; read-out: CDK2 IC50.
T3 construct: purchased SignalChem C29-18G
Assay type: biochemical
In short: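 Caliper microfluidic mobility-shift assay: 5 nM CDK2/CyclinE1, 100 μM ATP, 5 μM FL-18 peptide (5-FAM-QSPKKG-NH2) in pH 7.5 HEPES buffer with MgCl2, DTT, BSA, Triton X-100. Incubated 3 hours at room temperature, EDTA-stopped; IC50 from 4-parameter sigmoidal fit.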

Q: `COc1nc(-c2nc(Nc3ccc(N4CCCNCC4=O)cn3)ncc2F)cc2c1nc(C)n2C(C)C` [compound 113] was tested. Which IC50 did it give?
A: 100 to 1000 nM

Q: Which IC50 does the source give for `CC1CN(c2ccc(Nc3ncc(F)c(-c4ccn5ncc(C(C)C)c5c4)n3)nc2)C(=O)CCN1` (stereo not shown) [compound 194] here?
A: 10 to 100 nM

Q: `CC(C)n1cnc2c(F)nc(-c3ccnc(Nc4ccc(N5CCCC(N(C)C)C5=O)cn4)n3)cc21` (stereo not shown) [compound 283] was tested. Which IC50 did it give?
A: > 1000 nM

Q: `CC(C)c1cnn2ccc(-c3ccnc(Nc4ccc(N5CCCNC5=O)cc4)n3)cc12` [compound 173] was tested. Which IC50 did it give?
A: 10 to 100 nM

Q: `CC(C)c1cnn2ccc(-c3nc(Nc4ccc(N5CCN(CC(F)(F)F)CC5=O)cn4)ncc3F)cc12` [compound 53] was tested. Which IC50 did it give?
A: 10 to 100 nM

Q: Which IC50 does the source give for `CC(C)c1cnn2ccc(-c3ccnc(Nc4ccc(N5CCC(C)(N)CC5=O)cn4)n3)cc12` (stereo not shown) [compound 196] here?
A: < 10 nM

Q: With `CC(C)c1cnn2ccc(-c3nc(Nc4ccc(N5CCOCC5=O)cc4F)ncc3F)cc12` [compound 7] as the molecule, how does the IC50 read?
A: < 10 nM

Q: How did the IC50 turn out when `CC(C)n1cnc2c1CN(c1ccnc(Nc3ccc(N4CCOCC4=O)cn3)n1)CC2` [Synthetic Example 57] was run?
A: 10 to 100 nM

These molecules were tested on T47D breast cancer cells (assay: Anti-proliferation assay in T47D cell (Cyquant, day 6)). Conditions: Homo sapiens, T47D, anti-proliferation, T47D cells; read-out: T47D IC50.
Assay type: cell-based, human
In short: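 Cells were grown in RPMI 1640 with 10% FBS at 37 °C and dosed the day after plating at ten concentrations, 10 μM to 0.51 nM in 3-fold steps. CyQuant fluorescence (ex 485/em 535 nm) was read on day 6. IC50 was fitted from baseline-subtracted viability curves, with the baseline read after overnight culture.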

Q: With `COc1nc(-c2nc(Nc3ccc(N4CCCNCC4=O)cn3)ncc2F)cc2c1nc(C)n2C(C)C` [compound 113] as the molecule, how does the IC50 read?
A: 100 to 500 nM

Q: How did the IC50 turn out when `CC1CN(c2ccc(Nc3ncc(F)c(-c4ccn5ncc(C(C)C)c5c4)n3)nc2)C(=O)CCN1` (stereo not shown) [compound 194] was run?
A: 100 to 500 nM

Q: How did the IC50 turn out when `CC(C)n1cnc2c(F)nc(-c3ccnc(Nc4ccc(N5CCCC(N(C)C)C5=O)cn4)n3)cc21` (stereo not shown) [compound 283] was run?
A: < 100 nM

Q: How did the IC50 turn out when `CC(C)c1cnn2ccc(-c3ccnc(Nc4ccc(N5CCCNC5=O)cc4)n3)cc12` [compound 173] was run?
A: < 100 nM

Q: Which IC50 does the source give for `CC(C)c1cnn2ccc(-c3nc(Nc4ccc(N5CCN(CC(F)(F)F)CC5=O)cn4)ncc3F)cc12` [compound 53] here?
A: 100 to 500 nM

Q: `CC(C)c1cnn2ccc(-c3ccnc(Nc4ccc(N5CCC(C)(N)CC5=O)cn4)n3)cc12` (stereo not shown) [compound 196] was tested. Which IC50 did it give?
A: < 100 nM

Q: Which IC50 does the source give for `CC(C)c1cnn2ccc(-c3nc(Nc4ccc(N5CCOCC5=O)cc4F)ncc3F)cc12` [compound 7] here?
A: 100 to 500 nM

Q: For `CC(C)n1cnc2c1CN(c1ccnc(Nc3ccc(N4CCOCC4=O)cn3)n1)CC2` [Synthetic Example 57], which IC50 is on record?
A: 100 to 500 nM

Each molecule was assayed on phosphorylation of Retinoblastoma Protein (pRb Ser807/811 or Ser780) in T47D cells (assay: Inhibition of phosphorylation of retinoblastoma protein (pRb) in T47D cell (ELISA)). Conditions: Homo sapiens, T47D, read-out: Phospho T47D Ser807 IC50, pRb Ser807 phosphorylation, T47D cells.
Assay type: cell-based, human
In short: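 T47D cells in RPMI 1640 + 10% FBS, adhered overnight, then treated 24 h with 3-fold compound titrations (top concentration […]). Lysates assayed by sandwich ELISA for pRb Ser807/811 or Ser780 with HRP/TMB detection. IC50 from 4-parameter sigmoidal fit.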

Q: Which IC50 does the source give for `COc1nc(-c2nc(Nc3ccc(N4CCCNCC4=O)cn3)ncc2F)cc2c1nc(C)n2C(C)C` [compound 113] here?
A: 100 to 500 nM

Q: For `CC1CN(c2ccc(Nc3ncc(F)c(-c4ccn5ncc(C(C)C)c5c4)n3)nc2)C(=O)CCN1` (stereo not shown) [compound 194], which IC50 is on record?
A: < 100 nM

Q: With `CC(C)n1cnc2c(F)nc(-c3ccnc(Nc4ccc(N5CCCC(N(C)C)C5=O)cn4)n3)cc21` (stereo not shown) [compound 283] as the molecule, how does the IC50 read?
A: < 100 nM

Q: `CC(C)c1cnn2ccc(-c3ccnc(Nc4ccc(N5CCCNC5=O)cc4)n3)cc12` [compound 173] was tested. Which IC50 did it give?
A: < 100 nM

Q: `CC(C)c1cnn2ccc(-c3nc(Nc4ccc(N5CCN(CC(F)(F)F)CC5=O)cn4)ncc3F)cc12` [compound 53] was tested. Which IC50 did it give?
A: < 100 nM

Q: `CC(C)c1cnn2ccc(-c3ccnc(Nc4ccc(N5CCC(C)(N)CC5=O)cn4)n3)cc12` (stereo not shown) [compound 196] was tested. Which IC50 did it give?
A: < 100 nM

Q: Which IC50 does the source give for `CC(C)c1cnn2ccc(-c3nc(Nc4ccc(N5CCOCC5=O)cc4F)ncc3F)cc12` [compound 7] here?
A: 100 to 500 nM

Q: Which IC50 does the source give for `CC(C)n1cnc2c1CN(c1ccnc(Nc3ccc(N4CCOCC4=O)cn3)n1)CC2` [Synthetic Example 57] here?
A: < 100 nM
